Data reported in publication PMC9671962 (Communications Biology, 2022).
Like-named read-outs stand apart in the source and are kept apart here.

Columns and labels:
PARP1 = conditions: cited from earlier work; for maximum standardized uptake values (SUVmax): clinical PET
[1] = parameters: method as in PMID 27841728, PMID 27261505; conditions: cited from earlier work
[2] = parameters: method as in PMID 27841728, PMID 28222073; conditions: cited from earlier work
neuroblastoma = conditions: cited from earlier work
[3] = parameters: method as in PMID 28408529; conditions: cited from earlier work
NB-EBC1x tumor = test: Biodistribution, autoradiography and tumor dosimetry in NB-EBC1x tumor-bearing mice; assay type: in vivo, female SCID CB17 mice; conditions: 1 hour
Description: At various time points mice were euthanized and tissues were harvested, weighed, and assayed for radioactivity by gamma counter. Decay corrected data presented as percent injected dose per gram of tissue (%ID/g). Human dosimetry was calculated using OLINDA/EXM software by fitting time activity curves for biodistribution data. Tissue autoradiography was performed by freezing excised tumors at 1 h postinjection of each respective treatment. One tumor was collected for each treatment group. Tumors were cryosectioned (Leica Cryotome) at a thickness of 20 µm. Each section was collected with a 200 µm gap and a total of three sections were collected for each tumor. Sections were then exposed to a phosphorfilm for 60 h and films were read on a Cyclone Plus phosphorimager (Perkin Elmer). Experimental conditions have been included in the Supplementary Methods.
Animal studies were performed in female mice due to the lack of sex-related differences for [^211At]PTT tolerability from initial dose response studies performed in female and male mice. Female mice were chosen due to their underlying behavior towards other study subjects that reduced nonstudy-related causes for decreased wellness. Pre-clinical efficacy studies were performed through “single mouse testing” to more closely recapitulate a clinical trial. […] Number size for treatment groups was determined by model tumor growth reproducibility, which was previously shown to have less than 5% normal variation with at least two animals. Statistical tests for tumor response and event-free survival (EFS) were performed as a grouped analysis that included all tumor models treated at each respective dose level (n = 2 per model per dose level). Statistical differences between treatment groups for tumor response was performed by paired-model T-test that compared reduction in tumor volume for the 36 MBq/kg dose level vs. 24 MBq/kg or 12 MBq/kg. Event free survival was measured by area over the curve method to quantify time to event, which was set as tumor growth exceeding 2 cm[3],[19]. Differences in EFS were tested across all treated models for each respective dose level, and against untreated controls, by paired-model ANOVA analysis. Associations of drug target expression and response were performed by linear regression analysis of EFS and PARP1 mRNA expression. Genetic signatures were visually presented as a function of EFS and no statistical tests were applied. Blood and marrow toxicity studies were performed with n = 5 sample sizes and powered to detect >20% differences between untreated controls and treated animals. Results were tested for significance by one-way ANOVA comparison from untreated controls. Marrow colony formation assays were performed in replicates of 2 for each mouse subject, dependent on marrow isolation, and all replicates are included in final analyses. Statistical analysis was performed by ordinary one-way ANOVA comparison between the mean of control and test groups. Biodistribution studies were performed with n = 3 mice per time-point. Human dosimetry was calculated using OLINDA/EXM v1.1 software by fitting time activity curves for biodistribution data in a healthy mouse model. Tumor dosimetry was calculated by OLINDA/EXM v1.1 by fitting time activity curves for NB-EBC1 tumors from biodistribution data. All statistical analyses were performed in GraphPad Prism version 9.3.1 unless indicated otherwise.

[4] = mice; cited from earlier work
[5] = in vitro; ref previously shown by the authors, no reference given; cited from earlier work

## O=C1NCCn2c(-c3ccc(OCC[18F])cc3)nc3cccc1c32 [[^18F]FTT, fluorine-18 Fluorthanatrace]
PARP1; adults
  estimated kidney dose: 0.018–0.027 mGy/MBq
PARP1; breast cancer
  maximum standardized uptake values (SUVmax): 4–7
PARP1; ovarian cancer patients, minimal wash-out
  time of rapid tumor uptake kinetics post injection: 60 to 180 min
PARP1; ovarian cancer
  maximum standardized uptake values (SUVmax): 2–9
[1]
  thyroid uptake: around 4 % ID/g
[2]
  hepatobiliary clearance, share of blood clearance: > 90%

## N=C(N)NCc1cccc([131I])c1 [[^131I]MIBG, iodine-131-metaiodobenzylguanidine]
neuroblastoma
  overall survival benefit: below 40%

## O=C([O-])CC[C@H](NC(=O)N[C@@H](CCCCNC(=O)[C@H](Cc1ccc2ccccc2c1)NC(=O)C1CCC(CNC(=O)CN2CCN(CC(=O)[O-])CCN(CC(=O)[O-])CCN(CC(=O)[O-])CC2)CC1)C(=O)[O-])C(=O)[O-].[225Ac].[H+].[H+].[H+] (stereo partly shown) [[^225Ac]PSMA-617]
[3]
  kidney dose: 740 mSv/MBq

## [211At] [free astatine-211, astatine-211, reference compound]
NB-EBC1x tumor; 2-way ANOVA p value 0.0088
  tumor uptake compared to [^211At]PTT: lower uptake in tumor
NB-EBC1x tumor; 2-way ANOVA p-value 0.0004
  thyroid uptake compared to [^211At]PTT: significantly higher uptake in thyroid
[4]
  MTD for a single dose: greater than 50 MBq/kg
[5]
  potency relative to [211At]PTT in vitro: < 100 times

## CNCc1ccc(-c2[nH]c3cc(F)cc4c3c2CCNC4=O)cc1 [rucaparib]
[2]
  hepatobiliary clearance, share of blood clearance: > 90%
